Data on one compound can be found in publication PMC10937556, “Phenolic phytochemistry, in vitro, in silico, in vivo, and mechanistic anti-inflammatory and antioxidant evaluations of Habenaria digitata” (Frontiers in Pharmacology, 2024).

One assay deals with MDA. The assay can be described thus: In vivo antioxidant: MDA level. Further details: species or system mice. Conditions: compound 1 (20 mg).
The test system of assay [1] is prostaglandin E2-induced paw edema. The assay can be described thus: Prostaglandin E2-induced paw edema. The settings on record: 20 mg/kg, 4th hour (maximal).
Procedure: Employing prostaglandin E2, bradykinin, leukotriene, and histamine induced paw edema assays; the potential anti-inflammatory mechanism of the isolated compound was investigated. […] Sub-planter injections of prostaglandin E2 (0.01 mg/mL) or 10 mg/mL leukotriene or bradykinin (20 mg/mL) or 0.1 mL histamine (1 mg/mL) produced paw edema after 1 h. Each mouse’s paw volume was assessed immediately before and after sub-planter injection of various irritants (inflammatory agents) at 1–5 h.
The next assay relates to GSH-Px. The assay can be described thus: In vivo antioxidant: GSH-Px activity in brain, heart, liver. The settings on record: D-galactose aging mice. How it is done: Twenty male albino mice were distributed into four groups, each with five mice. The control group (group 1) received 0.4 mL of distilled water. The compound was given in doses of 2.5, 5, and 10 mg/kg to groups 2, 3, and 4, respectively. Throughout the trial, the mice were given a daily dose for 3 weeks and were evaluated for alterations, other symptoms of toxicity, and death on a daily basis. Blood obtained by a direct heart puncture was utilized to assess the compound’s in vivo antioxidant activity 24 hours following the last dose ([Mota et al., 2023]).
The brain, liver, and heart homogenates were prepared in the cold saline via a homogenizer, and the unsolvable extract was discarded by centrifugation at 10,000 rpm for 15 min at temperature 4°C. After that, the supernatant was extracted immediately for GSH-Px assay ([Li et al., 2021]).

Regarding `Cc1cnc(O)nc1O` [Compound 1, 5-methylpyrimidine-24,4-diol], the results for the MDA concentration in the assay with MDA (brain), in the assay with MDA (heart) and in the assay on MDA (liver) were 1.15 nmol/mL, 0.8 nmol/mg protein and 0.4 nmol/mg protein, respectively. The “Percentage inhibition of prostaglandin E2-induced paw edema” value in assay [1] came out at 82.0 ± 0.34%. In addition, the “GSH-Px activity in brain, heart and liver” value with GSH-Px is recorded as “enhances the activity of GSH-Px”.
